± gives the expanded uncertainty stated by the source.
Columns and labels:
[1] = 101.32 kPa, Liquid
[2] = refractive index (Na D-line) (dimensionless); conditions: 101.33 kPa, Liquid

`CCCCCl` [1-chlorobutane] gave a mass density ([1]; 288.15 K) of 892.2 ± 0.6 kg/m3, a viscosity ([1]; 288.15 K) of 0.472 ± 0.009 mPa·s and a mass density ([1]; 298.15 K) of 881 ± 0.7 kg/m3. For the same compound, the viscosity ([1]; 298.15 K) was 0.423 ± 0.008 mPa·s, the mass density ([1]; 308.15 K) was 869.7 ± 0.7 kg/m3 and the viscosity ([1]; 308.15 K) was 0.382 ± 0.008 mPa·s. For the same compound, the refractive index ([2]; 288.15 K) was 1.4045 ± 0.0006, the refractive index ([2]; 298.15 K) was 1.3993 ± 0.0006 and the refractive index ([2]; 308.15 K) was 1.3941 ± 0.0006.

In the case of `CCCCO` [butan-1-ol], the mass density ([1]; 288.15 K) is reported as 813.5 ± 0.9 kg/m3, the viscosity ([1]; 288.15 K) is reported as 3.394 ± 0.039 mPa·s and the mass density ([1]; 298.15 K) is reported as 805.9 ± 0.9 kg/m3. The viscosity ([1]; 298.15 K) was 2.598 ± 0.03 mPa·s, the mass density ([1]; 308.15 K) was 798.2 ± 0.9 kg/m3 and the viscosity ([1]; 308.15 K) was 2.019 ± 0.024 mPa·s. It also gave a refractive index ([2]; 288.15 K) of 1.401 ± 0.0006, a refractive index ([2]; 298.15 K) of 1.3972 ± 0.0006 and a refractive index ([2]; 308.15 K) of 1.3932 ± 0.0006.

Compound `CCO` [ethanol] has a mass density ([1]; 288.15 K) of 793.8 ± 0.9 kg/m3, a viscosity ([1]; 288.15 K) of 1.317 ± 0.016 mPa·s and a mass density ([1]; 298.15 K) of 785.2 ± 0.9 kg/m3. It also gave a viscosity ([1]; 298.15 K) of 1.085 ± 0.014 mPa·s, a mass density ([1]; 308.15 K) of 776.6 ± 1 kg/m3 and a viscosity ([1]; 308.15 K) of 0.902 ± 0.012 mPa·s. For the same compound, the refractive index ([2]; 288.15 K) was 1.363 ± 0.0006, the refractive index ([2]; 298.15 K) was 1.3591 ± 0.0006 and the refractive index ([2]; 308.15 K) was 1.355 ± 0.0006.

`CO` [methanol] showed a mass density ([1]; 288.15 K) of 796.1 ± 0.9 kg/m3, a viscosity ([1]; 288.15 K) of 0.627 ± 0.01 mPa·s and a mass density ([1]; 298.15 K) of 786.6 ± 0.9 kg/m3. It also gave a viscosity ([1]; 298.15 K) of 0.543 ± 0.009 mPa·s, a mass density ([1]; 308.15 K) of 777.2 ± 1 kg/m3 and a viscosity ([1]; 308.15 K) of 0.473 ± 0.009 mPa·s. The refractive index ([2]; 288.15 K) was 1.3303 ± 0.0006, the refractive index ([2]; 298.15 K) was 1.3275 ± 0.0006 and the refractive index ([2]; 308.15 K) was 1.3254 ± 0.0006.

`CCCO` [propan-1-ol] showed a mass density ([1]; 288.15 K) of 807.6 ± 0.9 kg/m3, a viscosity ([1]; 288.15 K) of 2.504 ± 0.029 mPa·s and a mass density ([1]; 298.15 K) of 799.6 ± 0.9 kg/m3. The viscosity ([1]; 298.15 K) was 1.958 ± 0.023 mPa·s, the mass density ([1]; 308.15 K) was 791.5 ± 0.9 kg/m3 and the viscosity ([1]; 308.15 K) was 1.548 ± 0.019 mPa·s. For the same compound, the refractive index ([2]; 288.15 K) was 1.3869 ± 0.0006, the refractive index ([2]; 298.15 K) was 1.3829 ± 0.0006 and the refractive index ([2]; 308.15 K) was 1.3789 ± 0.0006.
